# Reference: patent US9273330B2, “Butanol tolerance in microorganisms” (Butamax Advanced Biofuels LLC, priority 2012, dated 2016)
# Tests used:
# [1] = test system: population of cells that had survived 24 hour exposure to 2.5% isobutanol during Selection IV; assay: Serial passage in SEGU culture medium with glucose and isobutanol; type: cell-based, Saccharomyces cerevisiae; conditions: 30° C., after 48 hours (1:2 dilution after 24 hours)
# Procedure: A population of cells that had been evolved through four isobutanol exposures (Selection IV, Example 2) was repeatedly sub-cultured in growth medium supplemented with glucose and isobutanol to select for cells that were better able to utilize glucose in the presence of isobutanol.
# A population of cells that had survived 24 hour exposure to 2.5% isobutanol during Selection IV (see Table 7) was diluted into SEGU culture medium (SEU with 0.2% glucose) to OD600=0.8. The diluted cell suspension was divided into 1.5 ml cultures, dispensed into 2 ml sterile screw cap tubes and supplemented with various concentrations of isobutanol. The cultures were incubated at 30° C. on a roller drum. After 24 hours, the cultures were diluted 1:2 with the SEGU culture medium comprising the same amount of isobutanol as the previous culture. […] The 0.5% culture was serially sub-cultured 10 times by diluting the culture to approximately OD600=0.5 in SEGU culture medium containing 0.5% isobutanol and incubating the diluted culture at 30° C. for 24 to 48 hours before diluting the culture again.
# isobutanologen PNY1530 = assay: Isobutanol selection: viable cell count after 24 hour exposure of high-density PNY1530 cultures; type: cell-based, Saccharomyces cerevisiae
# Procedure: Cultures of PNY1530 were subjected to five rounds of selection in increasing concentrations of isobutanol. The first round of isobutanol selection was initiated by growing PNY1530 to OD600=1.8 in 100 ml of SEU culture medium (yeast nitrogen base supplemented with Sigma yeast synthetic dropout medium without uracil (Sigma Y1501) and with 0.2% ethanol). The cells were centrifuged, resuspended in 100 ml of fresh culture medium and grown for several hours to approximately 3 OD600 units. The culture was centrifuged and resuspended at OD600=100 (approximately 5×10^8 cfu/ml) in 3 ml of culture medium without ethanol. A small sample was removed from the cell suspension for a viable cell count, and the remaining cell suspension was divided into three cultures containing 1.5% isobutanol, 1.7% isobutanol or 2.0% isobutanol. Each culture was incubated at 30° C. on a roller drum for 24 hours. The cultures were then centrifuged, and the cell pellets were each resuspended in 1 ml of culture medium without isobutanol or ethanol. Small samples were removed from the cultures for viable cell counts, and the remaining portion of each cell suspension (approximately 975 μl) was inoculated into 10 ml of SEU culture medium. The cultures were incubated at 30° C. with shaking. In general, each subsequent round of isobutanol selection was initiated with cells that had survived the highest level of isobutanol selection in the previous round of exposure.
# Increased numbers of survivors were observed following each exposure to isobutanol (Table 7). For example, only 1.8% of the cells survived 24 hour exposure to 2.0% isobutanol during Selection I whereas 100% of the population survived 24 hour exposure to 2.0% isobutanol during Selection IV.
structure (smiles),measurement,setting,value
"CC(C)CO [Isobutanol, 2-methyl-1-propanol]",highest concentration that permitted growth,[1],0.5%
same,Percent Survival,"isobutanologen PNY1530; 1.5% isobutanol, Selection I",73
same,Percent Survival,"isobutanologen PNY1530; 1.7% isobutanol, Selection I",53
same,Percent Survival,"isobutanologen PNY1530; 2.0% isobutanol, Selection I",1.8 →
same,Percent Survival,"isobutanologen PNY1530; 2.0% isobutanol, Selection I, listed as isobutanol",1.8
same,Percent Survival,"isobutanologen PNY1530; 2.0% isobutanol, Selection II",12 →
same,Percent Survival,"isobutanologen PNY1530; 2.0% isobutanol, Selection III",21
same,Percent Survival,"isobutanologen PNY1530; 2.0% isobutanol, Selection IV",100
same,Percent Survival,"isobutanologen PNY1530; 2.2% isobutanol, Selection III",0.8
same,Percent Survival,"isobutanologen PNY1530; 2.2% isobutanol, Selection IV",45
same,Percent Survival,"isobutanologen PNY1530; 2.5% isobutanol, Selection II",0.0003
same,Percent Survival,"isobutanologen PNY1530; 2.5% isobutanol, Selection III",0.0006 →
same,Percent Survival,"isobutanologen PNY1530; 2.5% isobutanol, Selection IV",14 →
same,Percent Survival,"isobutanologen PNY1530; 2.5% isobutanol, Selection V",4.5
same,Percent Survival,"isobutanologen PNY1530; 2.7% isobutanol, Selection II",no survivors were detected
same,Percent Survival,"isobutanologen PNY1530; 2.7% isobutanol, Selection V",0.004
